The values that follow come from patent publication US7115593B2 (priority 2000, dated 2006).

One experiment relates to Phytophthora infestans. The experiment can be described thus: whole plant or invertebrate. The format is in vivo. The following applies: Phytophthora infestans, in Solanum lycopersicum, 72 h, read-out: Efficacy in %, single active compound, application rate 0.1 g/ha; tomato, protective, evaluation 3 days after inoculation.
For `CC(C)OC(=O)NC(C(=O)NC(C)c1nc2ccc(F)cc2s1)C(C)C` (stereo not shown) [compound of the formula (I), isopropyl 1-({[1-(6-fluoro-1,3-benzothiazol-2-yl)ethyl]-amino}carbonyl)-2-methylpropylcarbamate], the pest or weed control at 0.1 g/ha came to 47%.
The same measure, in the same setting: with `Cc1noc(C)c1S(=O)(=O)n1c(Cl)nc2cc3c(cc21)OC(F)(F)O3` [compound of the formula (XXVII), 1-(3,5-dimethyl-isoxazol-4-sulphonyl)-2-chloro-6,6-difluoro-[1,3]-dioxolo-[4,5f]-benzimidazole] the figure was 30%.

The experiment is the same for the next values; noted with them: Phytophthora infestans, in Solanum lycopersicum, 72 h, read-out: Efficacy in %, single active compound, application rate 1 g/ha; tomato, protective, evaluation 3 days after inoculation.
With `CO/N=C(/C1=NOCCO1)c1ccccc1Oc1ncnc(Oc2ccccc2Cl)c1F` [compound of the formula (XIV) (13)], the pest or weed control at 1 g/ha turned out to be 8%.
On the same count and under the same terms, with `CC(C)OC(=O)NC(C(=O)NC(C)c1nc2ccc(F)cc2s1)C(C)C` (stereo not shown) [compound of the formula (I), isopropyl 1-({[1-(6-fluoro-1,3-benzothiazol-2-yl)ethyl]-amino}carbonyl)-2-methylpropylcarbamate] the figure was 47%; with `CO/N=C(/C(=O)OC)c1ccccc1CO/N=C(\C)c1cccc(C(F)(F)F)c1` [compound of the formula (XIII) (12), trifloxystrobin], 0%.
The same measure, in the same setting: the same measure for `CO/C=C(/C(=O)OC)c1ccccc1Oc1cc(Oc2ccccc2C#N)ncn1` [compound of the formula (XII) (11), azoxystrobin]: 55%.

Still in this experiment, the particulars now being: Phytophthora infestans, in Solanum lycopersicum, 72 h, read-out: Efficacy in %, single active compound, application rate 10 g/ha; tomato, protective, evaluation 3 days after inoculation.
For `CCC1(C(=O)NC(C)c2ccc(Cl)cc2)C(C)C1(Cl)Cl` (stereo not shown) [carpropamid (V), N-[1-(4-chloro-phenyl)-ethyl]-2,2-dichloro-1-ethyl-3-methyl-cyclopropane-carboxamide], the pest or weed control at 10 g/ha was 0%.
Still for that read-out and setting: the same measure for `CC(C)(C)C(O)(CCc1ccc(Cl)cc1)Cn1cncn1` (stereo not shown) [tebuconazole (III), tebuconazole]: 5%; for `O=[N+]([O-])/N=C1\NCCN1Cc1ccc(Cl)nc1` [imidacloprid (XXII), 1-[(6-chloro-3-pyridinyl)-methyl]-N-nitro-2-imidazolidinimine]: 0%; for `CC(C)(C)C(O)C(Oc1ccc(-c2ccccc2)cc1)n1cncn1` (stereo not shown) [bitertanol (IIc), 1-(4-phenyl-phenoxy)-3,3-dimethyl-1-(1,2,4-triazol-1-yl)-butan-2-ol]: 4%.
On the same count and under the same terms, the same measure for `CC1(C(=O)Nc2ccc(O)c(Cl)c2Cl)CCCCC1` [fenhexamid (VIII), fenhexamid]: 13%; for `OC(Cc1ccccc1Cl)(Cn1nc[nH]c1=S)C1(Cl)CC1` (stereo not shown) [compound of the formula (XXI) (20)]: 2%; for `CC(C)(C)C(O)C(Oc1ccc(Cl)cc1)n1cncn1` (stereo not shown) [triadimenol (IIb), 1-(4-chloro-phenoxy)-3,3-dimethyl-1-(1,2,4-triazol-1-yl)-butan-2-ol]: 0%.
As to `O=[N+]([O-])c1cc(C(F)(F)F)c(Cl)c([N+](=O)[O-])c1Nc1ncc(C(F)(F)F)cc1Cl` [fluazinam (XXXI), fluazinam], the pest or weed control at 10 g/ha was 56%.

Still in this experiment, the particulars now being: Phytophthora infestans, in Solanum lycopersicum, 72 h, read-out: Efficacy in %, single active compound, application rate 20 g/ha; tomato, protective, evaluation 3 days after inoculation.
For `O=C1c2ccccc2C(=O)N1SC(Cl)(Cl)Cl` [folpet (XIX), folpet], the pest or weed control at 20 g/ha is 0%.
Take `N#Cc1c(Cl)c(Cl)c(Cl)c(C#N)c1Cl` [chlorothalonil (XXIX), chlorothalonil]: the pest or weed control at 20 g/ha was found to be 12%.

The experiment is the same for the next values; noted with them: single active compound, application rate 10 g/ha; tomato, protective, evaluation 3 days after inoculation.
Molecule `CCCN(CC)CC1COC2(CCC(C(C)(C)C)CC2)O1` (stereo not shown) [spiroxamine (XI), 8-t-butyl-2-(N-ethyl-N-n-propyl-amino)-methyl-1,4-dioxaspiro[5,4]-decane] had an Efficacy in % of 0%.

The experiment is the same for the next values; noted with them: single active compound, application rate 20 g/ha; tomato, protective, evaluation 3 days after inoculation.
In turn, “zinc propylene-1,2-bis-(dithiocarbamidate) [propineb (VI)]” showed an Efficacy in % of 19%.
On the same count and under the same terms, the same measure for mancozeb [mancozeb (VIIc)]: 28%; for `Cc1ccc(N(SC(F)(Cl)Cl)S(=O)(=O)N(C)C)cc1` [tolylfluanid (IVb), tolylfluanid]: 21%.
The same measure, in the same setting: with `CN(C)S(=O)(=O)N(SC(F)(Cl)Cl)c1ccccc1` [dichlofluanid (IVa), dichlofluanid] the figure was 5%.

The same experiment, now with this note: single active compound, application rate 50 g/ha; tomato, protective, evaluation 3 days after inoculation.
In the case of `[Cl-].[Cu+2].[Cu+2].[OH-].[OH-].[OH-]` [compound of the formula (XXXXVIa) (40), copper oxychloride], the Efficacy in % turned out to be 0%.
